How the values were obtained:
[1] = system: A/Osaka/164/2009 (O164s); design: species or system 2009 pandemic influenza A (H1N1) virus; details: in vivo
[2] = system: A/Osaka/180/2009 (O180r); design: species or system 2009 pandemic influenza A (H1N1) virus; details: in vivo
[3] = system: A/Vietnam/HCM9727/2009 (VN9727s); design: species or system 2009 pandemic influenza A (H1N1) virus; details: in vivo
[4] = system: A/Vietnam/HN32060/2009 (VN32060r); design: species or system 2009 pandemic influenza A (H1N1) virus; details: in vivo
[5] = system: A/Osaka/164/2009 (O164s); format: cell-based, 2009 pandemic influenza A (H1N1) virus
[6] = system: A/Osaka/180/2009 (O180r); format: cell-based, 2009 pandemic influenza A (H1N1) virus
[7] = system: A/Vietnam/HCM9727/2009 (VN9727s); format: cell-based, 2009 pandemic influenza A (H1N1) virus
[8] = system: A/Vietnam/HN32060/2009 (VN32060r); format: cell-based, 2009 pandemic influenza A (H1N1) virus

Structure (SMILES) | virus titers of O164s in the lungs of mice [1] | replication of O180r in the lungs of mice [2] | virus titers of VN9727s in the lungs of mice [3] | replication of VN32060r in the lungs of mice [4] | growth of O164s in the presence of NA inhibitor [5] | growth of O180r in the presence of NA inhibitor [6] | growth of VN9727s in the presence of NA inhibitor [7] | growth of VN32060r in the presence of NA inhibitor [8] | replication of O164s in the lungs of mice [1] | replication of VN9727s in the lungs of mice [3]
CCOC(=O)C1=C[C@@H](OC(CC)CC)[C@H](NC(C)=O)[C@@H](N)C1 [oseltamivir, oseltamivir phosphate] | significantly reduced | not inhibited | significantly reduced | not inhibited | – | – | – | – | – | –
CCC(CC)O[C@@H]1C=C(C(=O)O)C[C@H](N)[C@H]1NC(C)=O [Oseltamivir carboxylate] | – | – | – | – | severely impaired | replicated efficiently | severely impaired | replicated efficiently | – | –
[H]/N=C(\N)N[C@H]1C=C(C(=O)O)O[C@@H]([C@H](OC)[C@H](O)COC(=O)CCCCCCC)[C@@H]1NC(C)=O [CS-8958] | – | significantly reduced | – | significantly reduced | – | – | – | – | significantly reduced | significantly reduced
CC(=O)N[C@H]1[C@H]([C@H](O)[C@H](O)CO)OC(C(=O)O)=C[C@@H]1N=C(N)N [Zanamivir] | – | – | – | – | inhibited the replication | inhibited the replication | inhibited the replication | inhibited the replication | – | –
NC(=O)c1nc(F)c[nH]c1=O [favipiravir, Favipiravir] | – | significantly reduced | – | significantly reduced | – | – | – | – | significantly reduced | significantly reduced

Reference: paper PMC2928817 (PLoS Pathogens, 2010)
